Reference: patent publication US20230416228A1 (Forkhead Biotherapeutics, Inc., priority 2020, published 2023)

Molecular target: T1, human FOXO1 (constitutively active form Thr24Ala, Ser256Ala, Ser319Ala) (Homo sapiens, UniProt Q12778, S256A/S319A/T24A)
T1 construct: expressed in transfected cells; host or cells: HEK293 cells transfected with pcDNA3.1 plasmid
Assay: FOXO1 inhibitor activity assay: cell-based transcriptional (luciferase) reporter assay in HEK293 cells
Conditions: HEK293 cells transfected with insulin response element firefly luciferase reporter, FOXO1 and Renilla luciferase; 10-point dose response 50 μM to 2.5 nM; 24 hours
Outline: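 IC50 and maximal inhibition were fitted by 4-parameter logistic regression on normalized firefly/Renilla luciferase ratios. The 0% reference used RFP in place of FOXO1, and the 100% reference was DMSO-only with all plasmids.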

T1 sequence (Q12778 whole entry T24A/S256A/S319A): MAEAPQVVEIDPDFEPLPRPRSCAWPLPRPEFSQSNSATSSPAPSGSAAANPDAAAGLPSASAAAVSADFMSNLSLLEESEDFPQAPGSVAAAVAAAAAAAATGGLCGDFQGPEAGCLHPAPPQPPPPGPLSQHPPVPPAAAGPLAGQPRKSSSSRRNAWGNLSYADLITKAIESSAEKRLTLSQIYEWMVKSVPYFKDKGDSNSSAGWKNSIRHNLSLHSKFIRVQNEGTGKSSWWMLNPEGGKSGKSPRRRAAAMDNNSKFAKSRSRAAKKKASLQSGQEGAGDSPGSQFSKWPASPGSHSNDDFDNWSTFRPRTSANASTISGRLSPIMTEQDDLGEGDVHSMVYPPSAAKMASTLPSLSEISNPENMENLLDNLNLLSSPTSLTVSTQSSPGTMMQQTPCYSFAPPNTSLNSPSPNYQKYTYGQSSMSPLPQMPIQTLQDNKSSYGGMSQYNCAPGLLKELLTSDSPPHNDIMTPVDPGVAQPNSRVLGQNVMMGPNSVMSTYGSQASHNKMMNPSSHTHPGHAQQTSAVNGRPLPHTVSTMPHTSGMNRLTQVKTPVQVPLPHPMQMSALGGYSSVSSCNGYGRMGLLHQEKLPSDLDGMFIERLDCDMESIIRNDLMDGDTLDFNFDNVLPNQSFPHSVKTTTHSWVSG

Row | SMILES | IC50 [nM]
1 | Cn1nc(NC(=O)c2ccc(N3CCN(C(=O)CO)CC3)nc2)cc1-c1nc2ccccc2[nH]1 [Compound A-269, N-[5-(1H-benzimidazol-2-yl)-1-methyl-pyrazol-3-yl]-6-[4-(2-hydroxyacetyl)piperazin-1-yl]pyridine-3-carboxamide] | 100 to 300
2 | Cn1nc(NC(=O)c2ccc(N3CC(CO)C3)nc2)cc1-c1nc2ccccc2[nH]1 [Compound A-270, N-[5-(1H-benzimidazol-2-yl)-1-methyl-pyrazol-3-yl]-6-[3-(hydroxymethyl)azetidin-1-yl]pyridine-3-carboxamide] | 300 to 1000
3 | COCC(=O)N1CCN(c2ccc(C(=O)Nc3cc(-c4nc5ccccc5[nH]4)n(C)n3)cn2)CC1 [Compound A-271] | 100 to 300
4 | COCC1CN(c2ccc(C(=O)Nc3cc(-c4nc5ccccc5[nH]4)n(C)n3)cn2)C1 [Compound A-272, N-[5-(1H-benzimidazol-2-yl)-1-methyl-pyrazol-3-yl]-6-[3-(methoxymethyl)azetidin-1-yl]pyridine-3-carboxamide] | < 100
5 | Cn1nc(NC(=O)c2ccc(N3CCC4(CCCO4)CC3)nc2)cc1-c1nc2ccccc2[nH]1 [Compound A-273, N-[5-(1H-benzimidazol-2-yl)-1-methyl-pyrazol-3-yl]-6-(1-oxa-8-azaspiro[4.5]decan-8-yl)pyridine-3-carboxamide] | 100 to 300
6 | Cn1nc(NC(=O)c2ccc(N3CC4(CC(O)C4)C3)nc2)cc1-c1nc2ccccc2[nH]1 [Compound A-274, N-[5-(1H-benzimidazol-2-yl)-1-methyl-pyrazol-3-yl]-6-(6-hydroxy-2-azaspiro[3.3]heptan-2-yl)pyridine-3-carboxamide] | 100 to 300
7 | Cn1nc(NC(=O)c2ccc(N3CC4(COC4)C3)nc2)cc1-c1nc2ccccc2[nH]1 [Compound A-275, N-[5-(1H-benzimidazol-2-yl)-1-methyl-pyrazol-3-yl]-6-(2-oxa-6-azaspiro[3.3]heptan-6-yl)pyridine-3-carboxamide] | 100 to 300
8 | Cn1nc(NC(=O)c2ccc(N3CCN4C(=O)OCC4C3)nc2)cc1-c1nc2ccccc2[nH]1 (stereo not drawn) [Compound A-276, N-[5-(1H-benzimidazol-2-yl)-1-methyl-pyrazol-3-yl]-6-(3-oxo-5,6,8,8a-tetrahydro-1H-oxazolo[3,4-a]pyrazin-7-yl)pyridine-3-carboxamide] | < 100
9 | COc1ccc(C(=O)Nc2cc(-c3nc4cc(OCCO)ccc4[nH]3)[nH]n2)cc1Cl [Compound A-277, 3-chloro-N-[5-[5-(2-hydroxyethoxy)-1H-benzimidazol-2-yl]-1H-pyrazol-3-yl]-4-methoxy-benzamide] | < 100
10 | C[C@@H]1CN(c2ccc(C(=O)Nc3cc(-c4nc5ccccc5[nH]4)n(C)n3)cn2)C[C@H](C)N1CCO [Compound A-278, N-[5-(1H-benzimidazol-2-yl)-1-methyl-pyrazol-3-yl]-6-[(3R,5S)-4-(2-hydroxyethyl)-3,5-dimethyl-piperazin-1-yl]pyridine-3-carboxamide] | 100 to 300
11 | Cn1nc(NC(=O)c2ccc(N3CCN4CCCC4C3)nc2)cc1-c1nc2ccccc2[nH]1 (stereo not drawn) [Compound A-279] | < 100
12 | Cn1nc(NC(=O)c2ccc(N3CCNC(C)(C)C3)nc2)cc1-c1nc2ccccc2[nH]1 [Compound A-280, N-[5-(1H-benzimidazol-2-yl)-1-methyl-pyrazol-3-yl]-6-(3,3-dimethyl-piperazin-1-yl)pyridine-3-carboxamide] | < 100
13 | Cn1nc(NC(=O)c2ccc(N3CCNC4(CC4)C3)nc2)cc1-c1nc2ccccc2[nH]1 [Compound A-281, N-[5-(1H-benzimidazol-2-yl)-1-methyl-pyrazol-3-yl]-6-(4,7-diazaspiro[2.5]octan-7-yl)pyridine-3-carboxamide] | < 100
14 | Cn1nc(NC(=O)c2ccc(N3CCC4(CC3)COC4)nc2)cc1-c1nc2ccccc2[nH]1 [Compound A-282, N-[5-(1H-benzimidazol-2-yl)-1-methyl-pyrazol-3-yl]-6-(2-oxa-7-azaspiro[3.5]nonan-7-yl)pyridine-3-carboxamide] | < 100
15 | Cn1nc(NC(=O)c2ccc(N3CCC(O)(CCO)CC3)nc2)cc1-c1nc2ccccc2[nH]1 [Compound A-283, N-[5-(1H-benzimidazol-2-yl)-1-methyl-pyrazol-3-yl]-6-[4-hydroxy-4-(2-hydroxyethyl)-1-piperidyl]pyridine-3-carboxamide] | < 100
16 | Cn1nc(NC(=O)c2ccc(N3CC4CC(C3)N4)nc2)cc1-c1nc2ccccc2[nH]1 [Compound A-284, N-[5-(1H-benzimidazol-2-yl)-1-methyl-pyrazol-3-yl]-6-(3,6-diazabicyclo[3.1.1]heptan-3-yl)pyridine-3-carboxamide] | 100 to 300
17 | Cn1nc(NC(=O)c2ccc(N3C4CCC3COC4)nc2)cc1-c1nc2ccccc2[nH]1 [Compound A-285, N-[5-(1H-benzimidazol-2-yl)-1-methyl-pyrazol-3-yl]-6-(3-oxa-8-azabicyclo[3.2.1]octan-8-yl)pyridine-3-carboxamide] | < 100
18 | Cn1nc(NC(=O)c2ccc(N3CC4CCC(C3)N4)nc2)cc1-c1nc2ccccc2[nH]1 [Compound A-286, N-[5-(1H-benzimidazol-2-yl)-1-methyl-pyrazol-3-yl]-6-(3,8-diazabicyclo[3.2.1]octan-3-yl)pyridine-3-carboxamide] | 100 to 300
19 | Cn1nc(NC(=O)c2ccc(N3CCN(C(=O)COCCO)CC3)nc2)cc1-c1nc2ccccc2[nH]1 [Compound A-287, N-[5-(1H-benzimidazol-2-yl)-1-methyl-pyrazol-3-yl]-6-[4-[2-(2-hydroxyethoxy)acetyl]piperazin-1-yl]pyridine-3-carboxamide] | 300 to 1000
20 | C[C@H]1CN(c2ccc(C(=O)Nc3cc(-c4nc5ccccc5[nH]4)n(C)n3)cn2)C[C@H](C)N1 [Compound A-288, N-[5-(1H-benzimidazol-2-yl)-1-methyl-pyrazol-3-yl]-6-[(3S,5S)-3,5-dimethylpiperazin-1-yl]pyridine-3-carboxamide] | 100 to 300
21 | Cn1nc(NC(=O)c2ccc(N3CCN(C(=O)CN)CC3)nc2)cc1-c1nc2ccccc2[nH]1 [Compound A-289, 6-[4-(2-aminoacetyl)piperazin-1-yl]-N-[5-(1H-benzimidazol-2-yl)-1-methyl-pyrazol-3-yl]pyridine-3-carboxamide] | 100 to 300
